# According to US11446342B2, “Composite probiotics and use thereof” (INFINITUS (CHINA) COMPANY LTD., priority 2019, dated 2022):
# What was measured:
# [1] = tested on: mice having high-fat diet induced metabolic syndrome; assay: Liver glutathione (GSH) in high-fat diet-induced metabolic syndrome; format: in vivo, C57BL/6J mice; details: intragastric daily, high-fat feed; probiotics total 1.0×10^9 CFU/mL
# Procedure: (§1) The experimental animals were 48 5-week old SPF grade C57BL/6 male mice, which were purchased from Shanghai Slack Laboratory Animal Center. The high-fat feed was purchased from Nantong Trophic Animal Feed High-tech Co., Ltd. The model group was fed with TP23300 high-fat feed, and the normal control group was fed with TP23302 control feed. After the mice were adaptively feed for 7 days, the experiment started. The animals were given free access to food and water, the temperature was 22±2° C., the humidity was 55±5%, and the illumination was alternately 12 h bright and dark.
# (§2) Each group contains 6 mice. The feeding environmental temperature was 20-26° C., the humidity was 40%-70% and the padding was replaced twice a week. In the Bifidobacterium adolescentis CCFM8630, Lactobacillus reuteri CCFM8631, Lactobacillus rhamnosus CCFM1044 and Lactobacillus casei CCFM711 compounding group, the ratio of viable count of Bifidobacterium adolescentis CCFM8630, Lactobacillus reuteri CCFM8631, Lactobacillus rhamnosus CCFM1044 and Lactobacillus casei CCFM711 was 1:1:1:1. Each mouse was administered intragastrically each day with probiotics with a concentration of 1.0×10^9 CFU/mL, which was resuspended in 3% sucrose solution, and the volume by intragastric administration was 0.2 mL, i.e., the total amount of probiotics administered intragastrically to each mouse was 2×10^8 CFU each day. […]
# [2] = tested on: mice having high-fat diet induced metabolic syndrome; assay: Liver superoxide dismutase (SOD) in high-fat diet-induced metabolic syndrome; format: in vivo, C57BL/6J mice; details: intragastric daily, high-fat feed; probiotics total 1.0×10^9 CFU/mL
# Procedure: as §1, §2
compound,measurement,setting,value
"CN(CCOc1ccc(CC2SC(=O)NC2=O)cc1)c1ccccn1 (centres unmarked) [RH, rosiglitazone]",extent of increase of liver GSH level compared with the HF group,[1],6.88 μmoL/g prot
same,extent of increase of liver SOD activity compared with the HF group,[2],70.07 U/mg prot
